Like-named read-outs stand apart in the source and are kept apart here.
Tests used:
[1] = test system: undifferentiated ReNcell VM NPCs; assay: cells
Protocol: (§1) On-chip cultures of undifferentiated and 10-day differentiated NPCs were stamped with WellChips filled with compound-containing solutions and incubated for 72 hr prior to viability assessment. Vehicle-control normalized viabilities were plotted against compound concentration to generate dose-response plots (Figures 5A and S4). […] The sigmoidal fits for undifferentiated and differentiating NPCs were compared to assess whether differential sensitivities (i.e., different IC50 values) existed for the screened compounds.
(§2) Cell viability was determined in 3D on-chip cultures using a mammalian cell viability assay (LIVE/DEAD, Invitrogen). Prior to the assay, dead cell controls were prepared with 30 min incubation in a WellChip containing either […] 0.5% (w/v) saponin-DMEM/F12 medium in its microwells. […] After staining, PillarChips were rinsed twice with warm DPBS and incubated in DPBS containing 50 mM trehalose (Sigma) for 10 min before rapid drying with nitrogen and storage in the dark. Dried PillarChips were imaged with a Thermo Scientific Cellomics ArrayScan VTI high-content system.
(§3) Undifferentiated and differentiated microchip cultures were prepared as described above. Chemicals were purchased from Sigma or the NIH Small Molecule Repository (Table S2). Concentrated stocks were prepared and diluted into ReNcell Maintenance Medium to prepare the highest screened concentration solution for each compound. Four-fold serial dilutions were made in ReNcell Maintenance Medium, with all solutions having a final concentration of 0.5% or 1% DMSO (v/v) and 20 μg/mL Matrigel. For undifferentiated cultures, the solutions also contained 20 ng/mL of EGF and FGF2. These solutions were printed into WellChips, covered with a gas-permeable membrane, and warmed at 37°C for at least 5 min before stamping with cells. Each WellChip contained six compounds each at six concentrations (n = 10 biological replicates for each concentration) and the appropriate medium containing 0.5% or 1% DMSO for vehicle and dead controls (n = 32 biological replicates per control). PillarChip cultures were incubated with compounds for 72 hr with daily medium exchange to freshly prepared WellChips containing compounds at the appropriate concentrations. […] On-chip toxicity screens were repeated three times for undifferentiated and differentiated cultures. […]

[2] = test system: differentiating ReNcell VM NPCs; assay: cells
Protocol: as §1, §2, §3

[3] = test system: undifferentiated ReNcell VM NPCs; assay: On-chip proliferation assay (EdU incorporation), undifferentiated NPCs; format: cell-based, human; settings: for Effect on proliferation of NPC cultures (in words): state not specified
Source text: (§4) Differential toxic effects could be explained, in part, as a consequence of the different proliferative states between the undifferentiated and differentiating NPCs. To this end, the thymidine analog, 5-ethynyl-2′-deoxyuridine (EdU), was used to detect actively proliferating cells on-chip following exposure to compounds or vehicle control to determine dose-response effects on proliferation (Figures 5B and S5), and sigmoidal curves were fit, when appropriate, to obtain IC50 values (Table 1). We found ∼60% of undifferentiated NPCs incorporated EdU over a 24-hr period as opposed to ∼3% of differentiating cultures.
(§5) Undifferentiated and differentiating cultures were screened for toxicity as described previously, except that after the first 48 hr of exposure 10 μM EdU (Click-iT EdU, Invitrogen) was added to the compound-containing medium for the final 24 hr. After 72 hr, on-chip cultures were fixed and processed as described previously for on-chip immunofluorescence; however, instead of antibody staining the cultures were incubated with solution containing Alexa Fluor 488-azide for 30 min as specified in the product manual. Cultures were then rinsed with DPBS for 30 min, incubated in DPBS with Hoechst 33342 (5 μg/mL) for 30 min, and washed in DPBS for 30 min before proceeding with a trehalose wash and drying as described previously. Nuclei were selected using Cellomics software from blue channel images to create a mask, which was used for identification of fluorescently labeled EdU in the green channel for quantification of actively proliferating cells over the 24-hr EdU exposure.

[4] = test system: differentiating ReNcell VM NPCs; assay: cells; format: cell-based, human
Source text: as §4, §5

[5] = Homo sapiens, ReNcell VM, 72 h, read-out: Viability Effects Undifferentiated IC50
[6] = Homo sapiens, ReNcell VM, 72 h, read-out: Viability Effects Undifferentiated log(IC50 ± SEM) (converted)
[7] = Homo sapiens, ReNcell VM, read-out: Viability Effects Differentiating IC50
[8] = Homo sapiens, ReNcell VM, read-out: Viability Effects Differentiating log(IC50 ± SEM) (converted)
[9] = Homo sapiens, ReNcell VM, undifferentiated, 72 hr exposure, EdU for the final 24 hr, sigmoidal fit, read-out: Proliferation Effects Undifferentiating IC50
[10] = Homo sapiens, ReNcell VM, undifferentiated, 72 hr exposure, EdU for the final 24 hr, sigmoidal fit, read-out: Proliferation Effects Undifferentiating log(IC50 ± SEM) (converted)
[11] = Homo sapiens, ReNcell VM, differentiating, 72 hr exposure, EdU for the final 24 hr, sigmoidal fit, read-out: Proliferation Effects Differentiating IC50
[12] = Homo sapiens, ReNcell VM, differentiating, 72 hr exposure, EdU for the final 24 hr, sigmoidal fit, read-out: Proliferation Effects Differentiating log(IC50 ± SEM) (converted)
[13] = undifferentiated cultures, 72 hr
[14] = differentiating cultures, 72 hr

## CC(COc1ccccc1Cc1ccccc1)N1CCCCC1 (stereo not drawn) [Benproperone, Benproperine]
[1]
  Normalized viability at Cmax, Undifferentiated, Mean ± SEM: 0.06 ± 0.52
[2]
  Normalized viability at Cmax, Differentiating, Mean ± SEM: 0.71 ± 0.30

## CC1=C(/C=C/C(C)=C/C=C/C(C)=C/C(=O)O)C(C)(C)CCC1 [Retinoic Acid]
[1]; [5]
  IC50: 0.74 µM
[1]; [6]
  IC50: 0.741 µM
[1]; human, 72 h
  Normalized viability at Cmax, Undifferentiated, Mean ± SEM: 0.55 ± 0.16
[2]; [7]
  IC50: 47 µM
[2]; [8]
  IC50: 50.1 µM
[2]; human, 72 h
  Normalized viability at Cmax, Differentiating, Mean ± SEM: 0.50 ± 0.13
[3]; [9]
  IC50: 15 µM
[3]; [10]
  IC50: 14.8 µM
[4]; [11]
  IC50: 22 µM
[4]; [12]
  IC50: 22.4 µM
[4]; differentiated cultures, at lower concentrations
  Increase of the average number of proliferating cells: greater than 3 fold

## CN(C)CCOC(c1ccccc1)c1ccccc1 [Diphenhydramine]
[1]
  Cytotoxicity (in words): no cytotoxicity at functionally relevant concentrations

## COc1cccc2c1C(=O)c1c(O)c3c(c(O)c1C2=O)C[C@@](O)(C(=O)CO)C[C@@H]3O[C@H]1C[C@H](N)[C@H](O)[C@H](C)O1 [Doxorubicin]
[1]; [5]
  IC50: 0.8 µM
[1]; [6]
  IC50: 0.794 µM
[1]; human, 72 h
  Normalized viability at Cmax, Undifferentiated, Mean ± SEM: 0.05 ± 0.13
[2]; [7]
  IC50: 2.7 µM
[2]; [8]
  IC50: 2.75 µM
[2]; human, 72 h
  Normalized viability at Cmax, Differentiating, Mean ± SEM: 0.11 ± 0.16
[3]; [10]
  IC50: < 0.1 µM
[4]; [12]
  IC50: < 0.1 µM

## [Cl][Cd][Cl] [Cadmium Chloride]
[1]; read-out: Viability Effects Undifferentiated IC50, undifferentiated (+EGF/FGF2), 72 hr exposure, 1% Matrigel on-chip, sigmoidal fit
  IC50: 3.7 µM
[1]; undifferentiated (+EGF/FGF2), 72 hr exposure, 1% Matrigel on-chip, sigmoidal fit
  Viability Effects Undifferentiated log(IC50 ± SEM): 0.57 ± 0.3 log(μM)
[2]; 10-day differentiated (−EGF/FGF2), 72 hr exposure, 1% Matrigel on-chip, sigmoidal fit
  Viability Effects Differentiating log(IC50 ± SEM): 0.88 ± 0.27 log(μM)
[2]; read-out: Viability Effects Differentiating IC50, 10-day differentiated (−EGF/FGF2), 72 hr exposure, 1% Matrigel on-chip, sigmoidal fit
  IC50: 7.6 µM
[3]; undifferentiated, 72 hr exposure, EdU for the final 24 hr, sigmoidal fit
  Proliferation Effects Undifferentiating log(IC50 ± SEM): 0.93 log(μM)
[3]; undifferentiated, 72 hr exposure, EdU for the final 24 hr, sigmoidal fit, read-out: Proliferation Effects Undifferentiating IC50
  IC50: 8.6 µM
[4]; differentiating, 72 hr exposure, EdU for the final 24 hr, sigmoidal fit
  Proliferation Effects Differentiating log(IC50 ± SEM): 1.18 log(μM)
[4]; differentiating, 72 hr exposure, EdU for the final 24 hr, sigmoidal fit, read-out: Proliferation Effects Differentiating IC50
  IC50: 15 µM

## C[n+]1ccc(-c2cc[n+](C)cc2)cc1 [Paraquat]
[1]
  Normalized viability at Cmax, Undifferentiated, Mean ± SEM: -0.02 ± 0.03
[1]; [5]
  IC50: 57 µM
[1]; [6]
  IC50: 63.1 µM
[2]
  Normalized viability at Cmax, Differentiating, Mean ± SEM: 0.05 ± 0.02
[2]; [7]
  IC50: 41 µM
[2]; [8]
  IC50: 40.7 µM
[3]; [9]
  IC50: 59 µM
[3]; [10]
  IC50: 58.9 µM
[4]; [11]
  IC50: 30 µM
[4]; [12]
  IC50: 30.2 µM

## CC(=O)[O-].CC(=O)[O-].[Pb+2] [Lead Acetate]
[1]; [13]
  Effect on cell viability (in words): did not reduce cell viability
[2]; [14]
  Effect on cell viability (in words): did not reduce cell viability

## CN1CCN2c3ncccc3Cc3ccccc3C2C1 (stereo not drawn) [Mitrazepine, Mirtazapine]
[1]; human, 72 h
  Normalized viability at Cmax, Undifferentiated, Mean ± SEM: 1.11 ± 0.09

## C[C@@H]1C[C@H]2[C@@H]3CCC4=CC(=O)C=C[C@]4(C)[C@@]3(F)[C@@H](O)C[C@]2(C)[C@@]1(O)C(=O)CO [Dexamethasone]
[1]; human, 72 h
  Normalized viability at Cmax, Undifferentiated, Mean ± SEM: 1.35 ± 0.33
[2]; human, 72 h
  Normalized viability at Cmax, Differentiating, Mean ± SEM: 1.08 ± 0.16

## Fc1ccc([C@@H]2CCNC[C@H]2COc2ccc3c(c2)OCO3)cc1 [Paroxetine]
[1]; human, 72 h
  Normalized viability at Cmax, Undifferentiated, Mean ± SEM: 0.07 ± 0.13
[2]; human, 72 h
  Normalized viability at Cmax, Differentiating, Mean ± SEM: 0.30 ± 0.38

## O=C(O)CNCP(=O)(O)O [Glyphosate]
[1]
  Normalized viability at Cmax, Undifferentiated, Mean ± SEM: 0.01 ± 0.03
[2]
  Normalized viability at Cmax, Differentiating, Mean ± SEM: 0.41 ± 0.14

## O=c1[nH]cc(F)c(=O)[nH]1 [5-Fluorouracil]
[1]
  Effect on cell viability (in words): nearly complete killing
[1]; [5]
  IC50: 2.3 µM
[1]; [6]
  IC50: 2.29 µM
[1]; human, 72 h
  Normalized viability at Cmax, Undifferentiated, Mean ± SEM: 0.15 ± 0.10
[2]
  Effect on cell viability (in words): minimally impacting
[2]; [7]
  IC50: 2.3 µM
[2]; [8]
  IC50: 2.24 µM
[2]; human, 72 h
  Normalized viability at Cmax, Differentiating, Mean ± SEM: 0.81 ± 0.17
[3]; [9]
  IC50: 1.35 µM
[3]; [10]
  IC50: 1.38 µM
[3]
  Effect on proliferation of NPC cultures (in words): inhibit the proliferation
[3]; undifferentiated cultures
  Effect on EdU incorporation (in words): sharp decrease to no EdU incorporation
[4]; [11]
  IC50: 1.82 µM
[4]; [12]
  IC50: 1.82 µM
[4]; differentiating cultures
  Effect on EdU incorporation (in words): sharp decrease to no EdU incorporation

## O=C(O)C[C@H](O)C[C@H](O)/C=C/c1c(C2CC2)nc2ccccc2c1-c1ccc(F)cc1 [Pitavistatin]
[1]
  Effect on cell viability (in words): cytotoxic only to undifferentiated NPCs
  Normalized viability at Cmax, Undifferentiated, Mean ± SEM: 0.14 ± 0.11
[1]; [5]
  IC50: 5.4 µM
[1]; [6]
  IC50: 5.37 µM
[2]
  Effect on cell viability (in words): did not decrease the viability
  Normalized viability at Cmax, Differentiating, Mean ± SEM: 1.16 ± 0.07
[3]; [9]
  IC50: 2 µM
[3]; [10]
  IC50: 1.95 µM
[3]
  Effect on proliferation of NPC cultures (in words): inhibited proliferation
[4]; [11]
  IC50: 0.98 µM
[4]; [12]
  IC50: 0.977 µM

## [Cl][Mn][Cl] [Manganese Chloride]
[1]; [13]
  Effect on cell viability (in words): did not reduce cell viability
[2]; [14]
  Effect on cell viability (in words): did not reduce cell viability

## CC1(C)C[C@@H]1C(=O)N/C(=C\CCCCSC[C@H](N)C(=O)O)C(=O)O [Cilastatin]
[1]; [13]
  Effect on cell viability (in words): had no effect
[2]; [14]
  Effect on cell viability (in words): had no effect
[3]
  Effect on proliferation of NPC cultures (in words): did not

## CCCC(CCC)C(=O)O [Valproic Acid]
[1]; human, 72 h
  Normalized viability at Cmax, Undifferentiated, Mean ± SEM: 0.99 ± 0.08
[2]; human, 72 h
  Normalized viability at Cmax, Differentiating, Mean ± SEM: 1.09 ± 0.10

## O=C1CN=C(c2ccccc2)c2cc([N+](=O)[O-])ccc2N1 [Nitrazepam]
[1]
  Normalized viability at Cmax, Undifferentiated, Mean ± SEM: 1.16 ± 0.13
[2]
  Normalized viability at Cmax, Differentiating, Mean ± SEM: 1.07 ± 0.07
